# Source: ChEMBL document CHEMBL4261496, “Targeting quinolone- and aminocoumarin-resistant bacteria with new gyramide analogs that inhibit DNA gyrase” (Medchemcomm, 2017)
# Calls of active or inactive are those of the source. The rule behind the calls is not given here.
# How the values were obtained:
# [1] = system: Escherichia coli; assay: Antibacterial activity against gyramide-resistant Escherichia coli JW5503 harboring GyrA Phe96Leu mutant after 16 to 18 hrs by broth microdilution method; type: functional
# [2] = system: Escherichia coli; assay: Ratio of MIC for novobiocin-resistant Escherichia coli LE316 harboring GyrB Arg136Val mutant to MIC for Escherichia coli HB101; type: functional
# [3] = system: Escherichia coli; assay: Antibacterial activity against Escherichia coli BW25113 after 16 to 18 hrs by broth microdilution method; type: functional
# [4] = Ratio of MIC for Escherichia coli BW25113 to MIC for Escherichia coli JW5503; type: functional
# [5] = system: Streptococcus agalactiae; assay: Antibacterial activity against Streptococcus agalactiae after 16 to 18 hrs by broth microdilution method; type: functional
# [6] = target: DNA gyrase (Escherichia coli) (UniProt P0AES6+P0AES4); assay: Inhibition of Escherichia coli DNA gyrase ATPase activity up to 100 uM using DNA as substrate after 60 mins; type: protein-complex assay
# [7] = system: Escherichia coli; assay: Antibacterial activity against ciprofloxacin-resistant Escherichia coli JW5503 harboring GyrA Asp87Gly mutant after 16 to 18 hrs by broth microdilution method; type: functional
# [8] = system: Streptococcus pyogenes; assay: Antibacterial activity against Streptococcus pyogenes after 16 to 18 hrs by broth microdilution method; type: functional
# [9] = system: Escherichia coli; assay: Antibacterial activity against gyramide-resistant Escherichia coli JW5503 harboring GyrB Thr508Met mutant after 16 to 18 hrs by broth microdilution method; type: functional
# [10] = system: Acinetobacter baumannii; assay: Antibacterial activity against Acinetobacter baumannii clinical isolate after 16 to 18 hrs by broth microdilution method; type: functional
# [11] = system: Escherichia coli; assay: Antibacterial activity against Escherichia coli HB101 after 16 to 18 hrs by broth microdilution method; type: functional
# [12] = system: Escherichia coli; assay: Antibacterial activity against Escherichia coli BAS849 after 16 to 18 hrs by broth microdilution method; type: functional
# [13] = system: Escherichia coli; assay: Antibacterial activity against novobiocin-resistant Escherichia coli LE316 harboring GyrB Arg136Val mutant after 16 to 18 hrs in presence of PAbetaN by broth microdilution method; type: functional
# [14] = system: Escherichia coli; assay: Ratio of MIC for gyramide-resistant Escherichia coli JW5503 harboring GyrA Ser97Pro mutant to MIC for Escherichia coli JW5503; type: functional
# [15] = system: Escherichia coli; assay: Ratio of MIC for ciprofloxacin-resistant Escherichia coli JW5503 harboring GyrA Asp87Tyr mutant to MIC for Escherichia coli JW5503; type: functional
# [16] = system: Escherichia coli; assay: Ratio of MIC for gyramide-resistant Escherichia coli JW5503 harboring GyrA Pro35Thr mutant to MIC for Escherichia coli JW5503; type: functional
# [17] = system: Shigella flexneri; assay: Antibacterial activity against Shigella flexneri after 16 to 18 hrs by broth microdilution method; type: functional
# [18] = target: DNA gyrase (Escherichia coli, UniProt P0AES4+P0AES6); assay: Inhibition of Escherichia coli DNA gyrase assessed as inhibition of pUC19 supercoiling after 30 mins by agarose gel electrophoresis; type: protein-complex assay
# [19] = system: Salmonella typhimurium; assay: Antibacterial activity against Salmonella enterica subsp. enterica serovar Typhimurium after 16 to 18 hrs by broth microdilution method; type: functional
# [20] = system: Staphylococcus aureus; assay: Antibacterial activity against Staphylococcus aureus subsp. aureus clinical isolate after 16 to 18 hrs by broth microdilution method; type: functional
# [21] = system: Escherichia coli; assay: Ratio of MIC for gyramide-resistant Escherichia coli JW5503 harboring GyrA Phe96Leu mutant to MIC for Escherichia coli JW5503; type: functional
# [22] = system: Escherichia coli; assay: Antibacterial activity against gyramide-resistant Escherichia coli JW5503 harboring GyrA Pro35Thr mutant after 16 to 18 hrs by broth microdilution method; type: functional
# [23] = system: Escherichia coli; assay: Antibacterial activity against Escherichia coli HB101 after 16 to 18 hrs in presence of PAbetaN by broth microdilution method; type: functional
# [24] = system: Staphylococcus saprophyticus; assay: Antibacterial activity against Staphylococcus saprophyticus clinical isolate after 16 to 18 hrs by broth microdilution method; type: functional
# [25] = system: Escherichia coli; assay: Ratio of MIC for novobiocin-resistant Escherichia coli CC7 harboring GyrB Arg136Ser mutant to MIC for Escherichia coli HB101; type: functional
# [26] = system: Escherichia coli; assay: Ratio of MIC for ciprofloxacin-resistant Escherichia coli JW5503 harboring GyrA Asp87Gly mutant to MIC for Escherichia coli JW5503; type: functional
# [27] = system: Enterococcus faecium; assay: Antibacterial activity against Enterococcus faecium after 16 to 18 hrs by broth microdilution method; type: functional
# [28] = system: Escherichia coli; assay: Antibacterial activity against Escherichia coli UPEC after 16 to 18 hrs by broth microdilution method; type: functional
# [29] = system: Escherichia coli; assay: Ratio of MIC for gyramide-resistant Escherichia coli JW5503 harboring GyrA His45Tyr mutant to MIC for Escherichia coli JW5503; type: functional
# [30] = system: Pseudomonas aeruginosa; assay: Antibacterial activity against Pseudomonas aeruginosa after 16 to 18 hrs by broth microdilution method; type: functional
# [31] = system: Escherichia coli; assay: Ratio of MIC for ciprofloxacin-resistant Escherichia coli JW5503 harboring GyrA Ser83Leu mutant to MIC for Escherichia coli JW5503; type: functional
# [32] = system: Escherichia coli; assay: Antibacterial activity against gyramide-resistant Escherichia coli JW5503 harboring GyrA His45Tyr mutant after 16 to 18 hrs by broth microdilution method; type: functional
# [33] = system: Staphylococcus epidermidis; assay: Antibacterial activity against Staphylococcus epidermidis clinical isolate after 16 to 18 hrs by broth microdilution method; type: functional
# [34] = system: Escherichia coli; assay: Antibacterial activity against ciprofloxacin-resistant Escherichia coli JW5503 harboring GyrB Ser464Phe mutant after 16 to 18 hrs by broth microdilution method; type: functional
# [35] = system: Escherichia coli; assay: Antibacterial activity against gyramide-resistant Escherichia coli JW5503 harboring GyrA Ser97Pro mutant after 16 to 18 hrs by broth microdilution method; type: functional
# [36] = system: Escherichia coli; assay: Ratio of MIC for novobiocin-resistant Escherichia coli CC5 harboring GyrB Arg136His mutant to MIC for Escherichia coli HB101; type: functional
# [37] = system: Klebsiella aerogenes; assay: Antibacterial activity against Enterobacter aerogenes clinical isolate after 16 to 18 hrs by broth microdilution method; type: functional
# [38] = system: Escherichia coli; assay: Ratio of MIC for gyramide-resistant Escherichia coli JW5503 harboring GyrB Ser464Phe mutant to MIC for Escherichia coli JW5503; type: functional
# [39] = system: Escherichia coli; assay: Antibacterial activity against ciprofloxacin-resistant Escherichia coli JW5503 harboring GyrA Asp87Tyr mutant after 16 to 18 hrs by broth microdilution method; type: functional
# [40] = system: Bacillus subtilis; assay: Antibacterial activity against Bacillus subtilis after 16 to 18 hrs by broth microdilution method; type: functional
# [41] = system: Klebsiella pneumoniae; assay: Antibacterial activity against Klebsiella pneumoniae after 16 to 18 hrs by broth microdilution method; type: functional
# [42] = system: Escherichia coli; assay: Ratio of MIC for ciprofloxacin-resistant Escherichia coli JW5503 harboring GyrB Ser464Phe mutant to MIC for Escherichia coli JW5503; type: functional
# [43] = system: Edwardsiella tarda; assay: Antibacterial activity against Edwardsiella tarda clinical isolate after 16 to 18 hrs by broth microdilution method; type: functional
# [44] = system: Morganella morganii; assay: Antibacterial activity against Morganella morganii clinical isolate after 16 to 18 hrs by broth microdilution method; type: functional
# [45] = system: Escherichia coli; assay: Antibacterial activity against ciprofloxacin-resistant Escherichia coli JW5503 harboring GyrA Ser83Leu mutant after 16 to 18 hrs by broth microdilution method; type: functional
# [46] = system: Escherichia coli; assay: Antibacterial activity against Escherichia coli MC4100 after 16 to 18 hrs by broth microdilution method; type: functional
# [47] = system: Bacillus cereus; assay: Antibacterial activity against Bacillus cereus after 16 to 18 hrs by broth microdilution method; type: functional
# [48] = system: Enterococcus faecalis; assay: Antibacterial activity against Enterococcus faecalis after 16 to 18 hrs by broth microdilution method; type: functional
# [49] = system: Escherichia coli; assay: Antibacterial activity against Escherichia coli JW5503 after 16 to 18 hrs by broth microdilution method; type: functional
smiles,measurement,setting,value
Cc1ccc(C(F)(F)F)cc1S(=O)(=O)N[C@@H]1CCN(Cc2ccc(OC3CC3)cc2)C1,MIC,[1],11 µg/mL
same,Ratio,[2],2 - 4
same,MIC,[3],8 µg/mL
same,Ratio,[4],20
same,MIC,[5],8 µg/mL
same,inhibition,[6],inactive
same,MIC,[7],0.8 µg/mL
same,MIC,[8],4 µg/mL
same,MIC,[9],5.5 µg/mL
same,MIC,[10],> 16 µg/mL
same,MIC,[11],4 µg/mL
same,MIC,[12],1 µg/mL
same,MIC,[13],0.2 µg/mL
same,Ratio,[14],10 - 100
same,Ratio,[15],2 - 4
same,Ratio,[16],10 - 100
same,MIC,[17],4 µg/mL
same,IC50,[18],170 nM
same,MIC,[19],4 µg/mL
same,MIC,[20],8 µg/mL
same,Ratio,[21],10 - 100
same,MIC,[22],11 µg/mL
same,MIC,[23],0.1 µg/mL
same,MIC,[24],8 µg/mL
same,Ratio,[25],2 - 4
same,Ratio,[26],2 - 4
same,MIC,[27],8 µg/mL
same,MIC,[28],> 16 µg/mL
same,Ratio,[29],10 - 100
same,MIC,[30],> 16 µg/mL
same,Ratio,[31],2 - 4
same,MIC,[32],22 µg/mL
same,MIC,[33],8 µg/mL
same,MIC,[34],1.6 µg/mL
same,MIC,[35],22 µg/mL
same,Ratio,[36],2 - 4
same,MIC,[37],> 16 µg/mL
same,Ratio,[38],10 - 100
same,MIC,[39],0.2 µg/mL
same,MIC,[40],8 µg/mL
same,MIC,[41],> 16 µg/mL
same,Ratio,[42],2 - 4
same,MIC,[43],8 µg/mL
same,MIC,[44],> 16 µg/mL
same,MIC,[45],0.4 µg/mL
same,MIC,[46],16 µg/mL
same,MIC,[47],8 µg/mL
same,MIC,[48],16 µg/mL
Cc1ccc(C#N)cc1S(=O)(=O)N[C@@H]1CCN(Cc2ccc(-c3ccccc3)cc2)C1,MIC,[49],0.1 µg/mL
same,MIC,[1],2.7 µg/mL
same,Ratio,[2],2 - 4
same,MIC,[3],8 µg/mL
same,Ratio,[4],80
same,MIC,[5],> 16 µg/mL
same,inhibition,[6],inactive
same,MIC,[7],0.2 µg/mL
same,MIC,[8],> 16 µg/mL
same,MIC,[9],1.3 µg/mL
same,MIC,[10],> 16 µg/mL
same,MIC,[11],1 µg/mL
same,MIC,[12],0.5 µg/mL
same,MIC,[13],0.2 µg/mL
same,Ratio,[14],10 - 100
same,Ratio,[15],2 - 4
same,Ratio,[16],10 - 100
same,MIC,[17],4 µg/mL
same,IC50,[18],47 nM
same,MIC,[19],2 µg/mL
same,MIC,[20],> 16 µg/mL
same,Ratio,[21],10 - 100
same,MIC,[22],5.4 µg/mL
same,MIC,[24],> 16 µg/mL
same,Ratio,[25],2 - 4
same,Ratio,[26],2 - 4
same,MIC,[27],> 16 µg/mL
same,MIC,[28],> 16 µg/mL
same,Ratio,[29],10 - 100
same,MIC,[30],> 16 µg/mL
same,Ratio,[31],2 - 4
same,MIC,[32],22 µg/mL
same,MIC,[33],> 16 µg/mL
same,MIC,[34],0.4 µg/mL
same,MIC,[35],22 µg/mL
same,Ratio,[36],2 - 4
same,MIC,[37],> 16 µg/mL
same,Ratio,[38],10 - 100
same,MIC,[39],0.1 µg/mL
same,MIC,[40],> 16 µg/mL
same,MIC,[41],> 16 µg/mL
same,Ratio,[42],2 - 4
same,MIC,[43],8 µg/mL
same,MIC,[44],> 16 µg/mL
same,MIC,[46],8 µg/mL
same,MIC,[47],> 16 µg/mL
same,MIC,[48],> 16 µg/mL
